Measurements as given in ChEMBL document CHEMBL3132850, “5-Nor carbocyclic nucleosides: unusual nonnucleoside inhibitors of HIV-1 reverse transcriptase” (Medchemcomm, 2013).
Activity calls are given as the source filed them. No cut-off for these calls is given here.

What was measured:
[1] = Cytotoxicity against human CEM cells after 3 days; assay type: cell-based; conditions: CEM cells (CCRF-CEM)
[2] = system: Human immunodeficiency virus 1; assay: Antiviral activity against HIV1 3B infected in human CEM cells assessed as reduction of giant cell formation after 4 days by microscopic analysis; assay type: functional, organism-based; conditions: Human immunodeficiency virus 1, 3B, CCRF-CEM, 96 h
[3] = target: Human immunodeficiency virus type 1 reverse transcriptase (Human immunodeficiency virus 1, UniProt Q72547); assay: (§1) Inhibition of HIV1 wild type reverse transcriptase expressed in Escherichia coli BL21 (DE3) using [alpha-32P]dATP after 30 mins by liquid scintillation counting
[4] = system: Influenza A virus; assay: Antiviral activity against Influenza A virus H1N1; assay type: functional, organism-based
[5] = target: Human immunodeficiency virus type 1 reverse transcriptase (Human immunodeficiency virus 1, UniProt Q72547, Y181C); assay: Inhibition of HIV1 reverse transcriptase Y181C mutant expressed in Escherichia coli BL21 (DE3) using [alpha-32P]dATP after 30 mins by liquid scintillation counting
[6] = system: Human alphaherpesvirus 1; assay: Antiviral activity against Herpes simplex virus-1 KOS; assay type: functional, organism-based
[7] = system: Sindbis virus; assay: Antiviral activity against Sindbis virus; assay type: functional, organism-based
[8] = target: Human immunodeficiency virus type 1 reverse transcriptase (Human immunodeficiency virus 1, UniProt Q72547, K103N); assay: Inhibition of HIV1 reverse transcriptase K103N mutant expressed in Escherichia coli BL21 (DE3) using [alpha-32P]dATP after 30 mins by liquid scintillation counting
[9] = system: Coxsackievirus B4; assay: Antiviral activity against Coxsackievirus B4; assay type: functional, organism-based
[10] = system: Influenza B virus; assay: Antiviral activity against Influenza B virus; assay type: functional, organism-based
[11] = system: Respiratory syncytial virus; assay: Antiviral activity against Respiratory syncytial virus; assay type: functional, organism-based
[12] = system: Punta Toro virus; assay: Antiviral activity against Punta Toro virus; assay type: functional, organism-based
[13] = system: Human respirovirus 3; assay: Antiviral activity against Parainfluenza virus 3; assay type: functional, organism-based
[14] = system: Influenza A virus H3N2; assay: Antiviral activity against Influenza A virus H3N2; assay type: functional, organism-based
[15] = target: Human immunodeficiency virus type 1 reverse transcriptase (Human immunodeficiency virus 1, UniProt Q72547, L100I); assay: Inhibition of HIV1 reverse transcriptase L100I mutant expressed in Escherichia coli BL21 (DE3) using [alpha-32P]dATP after 30 mins by liquid scintillation counting
[16] = system: Mammalian orthoreovirus 1; assay: Antiviral activity against Reovirus-1; assay type: functional, organism-based
[17] = target: Human immunodeficiency virus type 1 reverse transcriptase (Human immunodeficiency virus 1, UniProt Q72547, G190A); assay: Inhibition of HIV1 reverse transcriptase G190A mutant expressed in Escherichia coli BL21 (DE3) using [alpha-32P]dATP after 30 mins by liquid scintillation counting
[18] = target: Human immunodeficiency virus type 1 reverse transcriptase (Human immunodeficiency virus 1, UniProt Q72547, V106A); assay: Inhibition of HIV1 reverse transcriptase V106A mutant expressed in Escherichia coli BL21 (DE3) using [alpha-32P]dATP after 30 mins by liquid scintillation counting
[19] = system: Human alphaherpesvirus 2; assay: Antiviral activity against Herpes simplex virus-2 G; assay type: functional, organism-based; conditions: strain G
[20] = system: Vaccinia virus; assay: Antiviral activity against Vaccinia virus; assay type: functional, organism-based; conditions: Orthopoxvirus vaccinia
[21] = system: Vesicular stomatitis virus; assay: Antiviral activity against Vesicular stomatitis virus; assay type: functional, organism-based
[22] = target: Human immunodeficiency virus type 1 reverse transcriptase (Human immunodeficiency virus 1, UniProt Q72547, K103N/Y181C); assay: Inhibition of HIV1 reverse transcriptase K103N/Y181C mutant expressed in Escherichia coli BL21 (DE3) using [alpha-32P]dATP after 30 mins by liquid scintillation counting
[23] = system: Feline coronavirus; assay: Antiviral activity against Feline coronavirus; assay type: functional, organism-based
[24] = system: Human alphaherpesvirus 3; assay: Antiviral activity against Varicella-zoster virus; assay type: functional, organism-based
[25] = Solubility of the compound in 10% DMSO up to 50 uM; assay type: physicochemical
[26] = system: Human immunodeficiency virus 1; assay: Ratio of IC50 for HIV1 wild type reverse transcriptase to IC50 for HIV1 reverse transcriptase L100I mutant
[27] = target: Human immunodeficiency virus type 1 reverse transcriptase (Human immunodeficiency virus 1) (UniProt Q72547); assay: as §1

O=C(OC1C=CC(n2ccc(=O)n(C(=O)c3ccccc3)c2=O)C1)c1ccccc1 (racemic)
CC50 at 72 h [1]: ≥ 250 µM | EC50 [2]: > 50 µM | IC50 [3]: > 100 µM

Cc1cc(=O)n(C(=O)c2ccccc2)c(=O)n1C1C=CC(OC(=O)c2ccccc2)C1 (racemic)
CC50 at 72 h [1]: 191 µM | EC50 [2]: > 50 µM | IC50 [3]: > 100 µM

O=C(OC1C=CC(n2ccc(=O)n(Cc3ccccc3)c2=O)C1)c1ccccc1 (racemic)
Activity [4]: inactive | IC50 [5]: > 50 µM | Activity [6]: inactive | Activity [7]: inactive | IC50 [8]: 33.6 µM | Activity [9]: inactive | Activity [10]: inactive | Activity [11]: inactive | Activity [12]: inactive | CC50 at 72 h [1]: > 25 µM | Activity [13]: inactive | Activity [14]: inactive | IC50 [15]: 1.2 µM | Activity [16]: inactive | IC50 [17]: > 50 µM | IC50 [18]: > 50 µM | Activity [19]: inactive | EC50 [2]: > 10 µM | Activity [20]: inactive | Activity [21]: inactive | IC50 [3]: 13.4 µM | IC50 [22]: > 50 µM | Activity [23]: inactive | Activity [24]: inactive

Cc1ccc(Cn2c(=O)ccn(C3C=CC(OC(=O)c4ccccc4)C3)c2=O)cc1 (racemic)
Activity [4]: inactive | IC50 [5]: > 50 µM | Activity [6]: inactive | Activity [7]: inactive | IC50 [8]: 55.4 µM | Activity [9]: inactive | Activity [10]: inactive | Activity [11]: inactive | Activity [12]: inactive | CC50 at 72 h [1]: > 25 µM | Activity [13]: inactive | Activity [14]: inactive | IC50 [15]: 2.4 µM | Activity [16]: inactive | IC50 [17]: > 50 µM | IC50 [18]: > 50 µM | Activity [19]: inactive | EC50 [2]: > 10 µM | Activity [20]: inactive | Activity [21]: inactive | IC50 [3]: 18.7 µM | IC50 [22]: > 50 µM | Activity [23]: inactive | Activity [24]: inactive

Cc1ccc(Cn2c(=O)ccn(C3C=CC(OC(=O)c4ccccc4)C3)c2=O)c(C)c1 (racemic)
CC50 at 72 h [1]: 31 µM | EC50 [2]: > 50 µM | IC50 [3]: > 50 µM

Cc1cc(C)cc(Cn2c(=O)ccn(C3C=CC(OC(=O)c4ccccc4)C3)c2=O)c1 (racemic)
solubility [25]: soluble | Activity [4]: inactive | IC50 [5]: > 50 µM | Activity [6]: inactive | Activity [7]: inactive | IC50 [8]: > 50 µM | Activity [9]: inactive | Activity [10]: inactive | Activity [11]: inactive | Activity [12]: inactive | CC50 at 72 h [1]: 40 µM | Activity [13]: inactive | Activity [14]: inactive | Ratio IC50 [26]: 10 | IC50 [15]: 11.1 µM | Activity [16]: inactive | IC50 [17]: > 50 µM | IC50 [18]: > 50 µM | Activity [19]: inactive | EC50 [2]: > 10 µM | Activity [20]: inactive | Activity [21]: inactive | inhibition [27]: Dose-dependent effect | IC50 [3]: > 50 µM | IC50 [22]: > 50 µM | Activity [23]: inactive | Activity [24]: inactive

O=C(OC1C=CC(n2ccc(=O)n(Cc3cc(F)cc(F)c3)c2=O)C1)c1ccccc1 (racemic)
CC50 at 72 h [1]: 32 µM | EC50 [2]: > 10 µM | IC50 [3]: > 50 µM

Cc1cc(=O)n(Cc2ccccc2)c(=O)n1C1C=CC(OC(=O)c2ccccc2)C1 (racemic)
CC50 at 72 h [1]: 34 µM | EC50 [2]: > 10 µM | IC50 [3]: > 50 µM

Cc1ccc(Cn2c(=O)cc(C)n(C3C=CC(OC(=O)c4ccccc4)C3)c2=O)cc1 (racemic)
CC50 at 72 h [1]: 20 µM | EC50 [2]: > 10 µM | IC50 [3]: > 50 µM

Cc1cc(C)cc(Cn2c(=O)cc(C)n(C3C=CC(OC(=O)c4ccccc4)C3)c2=O)c1 (racemic)
CC50 at 72 h [1]: 25 µM | EC50 [2]: > 10 µM | IC50 [3]: > 50 µM

O=C(OC1C=CC(n2ccc(=O)[nH]c2=O)C1)c1ccccc1 (racemic)
CC50 at 72 h [1]: > 250 µM | EC50 [2]: > 250 µM | IC50 [3]: > 100 µM

Cc1cc(=O)[nH]c(=O)n1C1C=CC(OC(=O)c2ccccc2)C1 (racemic)
CC50 at 72 h [1]: > 250 µM | EC50 [2]: > 50 µM | IC50 [3]: > 100 µM

O=c1ccn(C2C=CC(O)C2)c(=O)n1Cc1ccccc1 (racemic)
CC50 at 72 h [1]: > 250 µM | IC50 [3]: > 100 µM

CC(C)Nc1cccnc1N1CCN(C(=O)c2cc3cc(NS(C)(=O)=O)ccc3[nH]2)CC1 [DELAVIRDINE]
CC50 at 72 h [1]: > 25 µM | EC50 [2]: 0.11 µM

Cc1ccnc2c1NC(=O)c1cccnc1N2C1CC1 [NEVIRAPINE]
CC50 at 72 h [1]: > 25 µM | EC50 [2]: 0.024 µM
